Experimental findings from patent US9327020B2, “Trisaccharide derivates, and their use as adjuvants” (Immunovo B.V., priority 2010, dated 2016) are described below.

What all share (format): in vivo, rat
The subject of one series is testosterone. Nature of the series: Serum testosterone levels (Testosterone EIA) of immunized rats. The protocol:
(§1) The sulpho-lipo based adjuvants were tested in different doses varying from 0.008-8 mg per dose. The adjuvants were tested in combination with a GnRH-KLH conjugate with 0.7 μg conjugated GnRH per dose. Adjuvanticity of the adjuvants was compared with the positive control adjuvant, sulpho-lipo-sucrose (disaccharide with one sulphate ester group and seven lauroyl acid ester groups, S1L7-Su) and with negative control adjuvant consisting of an squalane-in-water emulsion without saccharide compound and one group receiving PBS only.
(§2) Male Wistar rats, 10 weeks of age, were housed with 3 rats per cage. Rats had ad libitum access to food en water. Rats were immunized at day 0, 14 and 28, according to the experimental design (Table 2) with 400 μl vaccine comprising 200 μl water phase and 200 μl adjuvant. Two intramuscular injections (100 μl each) were injected at the left and right inner thigh and 2×100 μl was injected subcutaneously in the neck region. Each group consists of 5 rats.
(§3) Blood samples for serum were collected from all animals prior to the immunizations and at day 41 and 56
Serum testosterone levels were measured using a commercially available Testosterone EIA (Beckman Coulter, Woerden, The Netherlands) according to the instructions of the manufacturer.

In the next series the test system is GnRH. Nature of the series: GnRH specific antibody titers by ELISA in serum of rats immunized with GnRH-KLH conjugate plus adjuvant. As to conditions: for GnRH antibody titers, dose dependence: male Wistar rats, adjuvant 0.008-8 mg per dose, GnRH-KLH conjugate, FIG. 4A-B; for GnRH antibody titers versus squalane emulsion only (NS): rats that received 8 mg saccharide compound, FIG. 4C; for GnRH antibody titers versus adjuvant without saccharide (NS, group 11): rats treated with 0.08-8 mg sulpho-lipo-trisaccharide. The protocol:
as §1
Vaccines 1-13 were formulated by adding equal volume of adjuvant (comprising the saccharide compounds as shown in table 2) to the water phase (containing 0.7 μg conjugated GnRH). Vaccine 14 consists of PBS only. The following vaccines were prepared:
as §2, §3
GnRH specific antibodies were measured by ELISA. Plates (96 wells) were precoated with 0.2% glutardialdehyde in phosphate buffer (pH 5) for 3 hours at room temperature, washed with 0.1 M phosphate buffer (pH 8) and coated with 100 μl per well of a solution containing 10 μg GnRH (Pepscan Presto, Lelystad, The Netherlands) per ml phosphate buffer (pH 8) and incubated for 3 hours at 37° C. Coated plates were washed with 0.05% Tween-80. Serum samples were diluted (1/10) in PEM (1% Tween-80 with 4% horse serum). This dilution was further diluted in the 96-well plate (100 μl per well, 8 steps) and incubated 1 hour at 37° C. After washing with 0.05% Tween-80, 100 μl of goat-anti-rat antiserum conjugated with peroxidase in PEM was added to the wells. Plates were incubated for 1 h at 37° C. and washed 12 times with 0.05% Tween-80. Subsequently, 150 μl of a substrate solution containing 2,2-azino-bis-(3-benzthiazoline-6-sulphonic acid) (ABTS) plus H2O2 was added to the wells of the plates. Plates were incubated for 45 minutes at ambient room temperature and absorbance was measured at 405 nm. Antibody titer was expressed as the 10 log of the dilution factor that gives an optical density of 4 times background (approx. 100).
In general terms: An ELISA detects its analyte on a solid surface through an enzyme-linked reagent.

Series [1] is described as follows: Rise of mean body temperature (rectal) after immunization. As to conditions: 8 mg; for Mean body temperature (MBT): FIG. 6C. The protocol:
as §2
At least once daily clinical observations were made in all animals. Mean body temperature (MBT) was determined for all animals before and after each immunization by rectal temperature. Mean body temperature per group (MBT) are depicted as to preimmunization levels FIG. 6.

A short description of series [2]: Injection site reactions (tissue swelling) after immunization. As to conditions: 8 mg. The protocol: as §2
Before vaccination the injection sites were assessed for the presence of abnormalities or existing local reactions. If such abnormalities or local reactions were absent, the animal was injected on that site. After each immunization, injection sites were inspected for tissue swelling. Size of subcutaneous injection sites was measured (diameter in mm). Since the intramuscular injection site reactions in the hind leg is difficult to determine, only the presence of intramuscular injections sites (tissue swelling) was determined and expressed in arbitrary values (present=10 mm, not present=0 mm) Scores of injection site reactions were added up per rat for the four injection sites at each inspection, means per group were calculated The results thereof are presented in FIG. 7.

Where [3] appears, read: from 0.08 mg sulpho-lipo-trisaccharide onwards, FIG. 5A-B.

“Sulpho-Lipo-Raffinose [Example S1L10-Ra]”: in the series on testosterone (setting [3]), the Serum testosterone levels entry is recorded as “dramatic decline of serum testosterone levels”. In the series with GnRH, the “GnRH antibody titers, dose dependence” value was “dose dependent antibody titers against GnRH”; the “GnRH antibody titers versus squalane emulsion only (NS)” value is reported as “substantially higher”; the “GnRH antibody titers versus adjuvant without saccharide (NS, group 11)” value is listed as “substantially higher”.

As to “Sulpho-Lipo-Maltotriose [Example S1L10-Ma]”, the Serum testosterone levels result with testosterone (setting [3]) was “dramatic decline of serum testosterone levels”. In the series on GnRH, the “GnRH antibody titers, dose dependence” value is reported as “dose dependent antibody titers against GnRH”; the “GnRH antibody titers versus squalane emulsion only (NS)” value was “substantially higher”; the “GnRH antibody titers versus adjuvant without saccharide (NS, group 11)” value is reported as “substantially higher”.

Take `CCCCCCCCCCCC(=O)OC[C@H]1O[C@H](OC[C@H]2O[C@H](O[C@]3(COC(=O)CCCCCCCCCCC)O[C@H](COC(=O)CCCCCCCCCCC)[C@@H](OC(=O)CCCCCCCCCCC)[C@@H]3OC(=O)CCCCCCCCCCC)[C@H](OC(=O)CCCCCCCCCCC)[C@@H](OC(=O)CCCCCCCCCCC)[C@@H]2OC(=O)CCCCCCCCCCC)[C@H](OC(=O)CCCCCCCCCCC)[C@@H](OC(=O)CCCCCCCCCCC)[C@H]1OC(=O)CCCCCCCCCCC` [Example L11-Ra, Lipo-Raffinose]: in the series with testosterone (8 mg, FIG. 5C), the Serum testosterone levels result is given as “induced decreasing testosterone levels”. The “GnRH antibody titers versus squalane emulsion only (NS)” value with GnRH is given as “substantially higher”. Moreover, the “Mean body temperature (MBT), any increase” value in series [1] (after immunization) is “did not induce any increase in MBT”. The “Adverse effects at the site of injection” value in series [2] is “did not induce any adverse effects at the site of injection”.

Consider sulpho-lipo-sucrose [Example S1L7-Su-8], for which the entries for the “Mean body temperature (MBT)” value in series [1] (3 hours post vaccination) and in series [1] (21 hours after vaccination) were “slightly higher increase in MBT than the trisaccharide compounds” and “still increased”, respectively. For the same compound, in series [2] (5 days after immunization), the “Injection site reactions at final inspection” value is given as “still significant injection site reactions were present”. In addition, the “Injection site reactions, course of size” value in series [2] (FIG. 7C) is “increased in size up to day 4”. Also, the “Injection site reactions, size relative to sulpho-lipo-trisaccharides” value in series [2] (FIG. 7C) is on record as “more than 4 times”.
